Read-outs that look alike come from different tables or passages of the source.
Legend:
[1] = system: Bmx, CSK, FGR, BRK, and HCK; settings: cited from earlier work
[2] = system: EGFR, Yes, ErbB2, and JAK3; settings: cited from earlier work
[3] = biological target: T1, bone marrow tyrosine kinase on chromosome X (BMX) (Homo sapiens, UniProt P51813); settings: targets Cys496 in the BMX ATP binding domain; cited from earlier work
T1 sequence (P51813 1-675): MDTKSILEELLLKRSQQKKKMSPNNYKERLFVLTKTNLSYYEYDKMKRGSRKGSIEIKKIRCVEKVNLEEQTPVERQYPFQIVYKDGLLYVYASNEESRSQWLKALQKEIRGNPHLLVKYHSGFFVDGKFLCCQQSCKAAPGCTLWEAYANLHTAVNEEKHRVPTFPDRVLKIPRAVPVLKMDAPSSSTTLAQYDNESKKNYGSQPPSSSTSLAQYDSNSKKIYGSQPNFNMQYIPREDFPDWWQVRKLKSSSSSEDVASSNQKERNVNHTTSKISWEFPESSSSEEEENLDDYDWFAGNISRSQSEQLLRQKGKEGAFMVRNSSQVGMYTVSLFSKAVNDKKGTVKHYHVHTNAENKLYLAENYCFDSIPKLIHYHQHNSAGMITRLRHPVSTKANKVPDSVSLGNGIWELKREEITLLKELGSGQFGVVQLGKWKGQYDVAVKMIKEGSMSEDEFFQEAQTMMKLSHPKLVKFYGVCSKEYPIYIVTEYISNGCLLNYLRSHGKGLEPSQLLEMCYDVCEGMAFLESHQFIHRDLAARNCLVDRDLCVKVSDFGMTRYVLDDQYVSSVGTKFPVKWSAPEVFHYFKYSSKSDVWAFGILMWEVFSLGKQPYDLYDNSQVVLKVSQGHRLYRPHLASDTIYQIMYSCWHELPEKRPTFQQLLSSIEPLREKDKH

BTK [4] = biological target: BTK (Rattus norvegicus, UniProt Q5S255); settings: read-out: in vivo IC50; rats; cited from earlier work
Chain of BTK (Rattus norvegicus, UniProt Q5S255) (Q5S255 1-660): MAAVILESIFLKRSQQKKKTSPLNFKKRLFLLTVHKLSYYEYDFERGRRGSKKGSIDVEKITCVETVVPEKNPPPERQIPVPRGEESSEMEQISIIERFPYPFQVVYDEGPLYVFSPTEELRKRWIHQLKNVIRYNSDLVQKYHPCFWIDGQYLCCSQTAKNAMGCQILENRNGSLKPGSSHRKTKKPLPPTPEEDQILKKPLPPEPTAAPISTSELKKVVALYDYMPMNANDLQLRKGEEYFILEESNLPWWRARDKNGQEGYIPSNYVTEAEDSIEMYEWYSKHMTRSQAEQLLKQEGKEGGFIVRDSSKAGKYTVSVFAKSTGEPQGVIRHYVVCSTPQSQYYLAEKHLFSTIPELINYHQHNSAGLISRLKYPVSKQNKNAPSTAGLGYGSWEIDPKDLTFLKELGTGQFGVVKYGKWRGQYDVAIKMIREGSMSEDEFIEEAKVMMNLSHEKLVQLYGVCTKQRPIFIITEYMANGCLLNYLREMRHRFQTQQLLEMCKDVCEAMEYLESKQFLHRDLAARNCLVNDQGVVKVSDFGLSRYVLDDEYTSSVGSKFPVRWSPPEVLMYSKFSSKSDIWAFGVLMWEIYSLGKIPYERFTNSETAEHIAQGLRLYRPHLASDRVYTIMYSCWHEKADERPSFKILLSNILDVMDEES

[5] = system: ABC and GCB types of DLBCL cell lines; experiment: Cell Titer-Glo cell viability, enzastaurin alone, 9 DLBCL cell lines; assay type: cell-based; settings: 72 h; read-out: 50% inhibitory concentration (IC50) of cell proliferation
[6] = system: p-BTK in HBL-1 and TMD8 cells; experiment: Western blot of p-BTK after enzastaurin; assay type: cell-based; settings: 2 hours treatment
HBL-1 cells [7] = experiment: Apoptosis assay, annexin V flow cytometry; assay type: cell-based; settings: HBL-1, 48 h
[8] = system: PARP, XIAP, MCL-1, caspase-3, Bcl-2 in HBL-1 cells; experiment: Western blot of proteins associated with apoptosis; assay type: cell-based; settings: HBL-1, 48 hours
HBL-1 cells [9] = experiment: Transwell invasion assay (Matrigel); assay type: cell-based; settings: HBL-1, 2 micromolar enzastaurin and/or 0.02 micromolar ibrutinib
HBL-1 cells [10] = experiment: Transwell migration assay; assay type: cell-based; settings: HBL-1, 2 micromolar enzastaurin and/or 0.02 micromolar ibrutinib
[11] = system: signals downstream of BCR in HBL-1, TMD-8, and SU-DHL-6 cells; experiment: Western blot of downstream BCR signalling; assay type: cell-based
HBL-1 cells [12] = experiment: Whole-transcriptome RNA-seq; assay type: cell-based; settings: HBL-1, 24 hours
[13] = system: ABC-DLBCL HBL-1 cells engrafted in NPG mice; experiment: HBL-1 lymphoma xenograft model; assay type: in vivo; settings: for tumour weight: end of the experiment (day 39), vehicle 1321.50±168.84 mg; for reduction of tumor volume: enzastaurin 50 mg/kg BID oral, ibrutinib 12 mg/kg QD oral, 21 days
SU-DHL-5 = experiment: Cell proliferation assay (Cell Titer AQueous One Solution), Example 2; assay type: cell-based; settings: Homo sapiens; SU-DHL-5, 72 h, 0.014 μM-10 μM
SU-DHL-6 = experiment: as above; assay type: cell-based; settings: Homo sapiens; SU-DHL-6, 72 h, 0.014 μM-10 μM
DLBCL patients [14] = settings: Phase I/II studies, cited from earlier work
high-risk DLBCL patients = settings: enzastaurin alone, after remission of B cell lymphoma; cited from earlier work
DLBCL patients [15] = settings: DLBCL trials of enzastaurin; cited from earlier work
BTK [16] = biological target: BTK (Homo sapiens, UniProt Q06187); settings: cited from earlier work
Chain of BTK (Homo sapiens, UniProt Q06187) (Q06187 whole entry, species assumed): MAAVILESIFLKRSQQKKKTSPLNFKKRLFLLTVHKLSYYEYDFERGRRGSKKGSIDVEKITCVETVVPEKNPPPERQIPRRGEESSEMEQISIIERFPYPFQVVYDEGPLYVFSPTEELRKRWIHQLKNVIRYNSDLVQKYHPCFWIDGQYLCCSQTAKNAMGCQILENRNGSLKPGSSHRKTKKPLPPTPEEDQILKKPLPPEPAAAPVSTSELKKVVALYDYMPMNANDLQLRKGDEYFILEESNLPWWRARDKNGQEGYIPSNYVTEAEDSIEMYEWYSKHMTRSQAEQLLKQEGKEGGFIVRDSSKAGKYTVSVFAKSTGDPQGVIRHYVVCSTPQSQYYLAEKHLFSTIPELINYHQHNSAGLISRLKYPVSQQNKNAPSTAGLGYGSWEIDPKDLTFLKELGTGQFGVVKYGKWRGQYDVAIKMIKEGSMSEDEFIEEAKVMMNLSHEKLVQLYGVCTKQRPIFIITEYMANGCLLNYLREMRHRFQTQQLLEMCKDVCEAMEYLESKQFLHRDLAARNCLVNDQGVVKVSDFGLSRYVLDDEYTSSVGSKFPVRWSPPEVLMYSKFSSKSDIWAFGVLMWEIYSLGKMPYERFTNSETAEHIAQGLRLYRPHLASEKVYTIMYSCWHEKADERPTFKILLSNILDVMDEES

[17] = biological target: T2, interleukin-2-inducible T-cell kinase (ITK) (Homo sapiens, UniProt Q08881); settings: cited from earlier work
T2 sequence (Q08881 1-620): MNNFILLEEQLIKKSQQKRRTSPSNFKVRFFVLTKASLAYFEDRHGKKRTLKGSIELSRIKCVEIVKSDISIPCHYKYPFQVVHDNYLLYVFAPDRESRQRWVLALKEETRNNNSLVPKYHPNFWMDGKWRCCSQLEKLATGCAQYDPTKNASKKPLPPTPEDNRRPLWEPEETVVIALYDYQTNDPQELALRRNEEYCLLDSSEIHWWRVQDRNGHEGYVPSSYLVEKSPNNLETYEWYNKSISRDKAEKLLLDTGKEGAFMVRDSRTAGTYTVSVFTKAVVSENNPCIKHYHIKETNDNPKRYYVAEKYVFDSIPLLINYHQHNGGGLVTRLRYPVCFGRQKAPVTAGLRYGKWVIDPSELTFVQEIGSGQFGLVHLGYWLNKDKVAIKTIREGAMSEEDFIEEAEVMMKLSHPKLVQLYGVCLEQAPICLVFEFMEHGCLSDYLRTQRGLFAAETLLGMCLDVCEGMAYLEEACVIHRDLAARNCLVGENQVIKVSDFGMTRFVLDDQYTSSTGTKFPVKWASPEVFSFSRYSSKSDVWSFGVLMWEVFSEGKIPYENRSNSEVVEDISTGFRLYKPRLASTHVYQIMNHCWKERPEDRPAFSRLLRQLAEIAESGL

Plx1 = Plx1 (Xenopus laevis, UniProt P70032); settings: cited from earlier work
Chain of Plx1 (P70032 whole entry): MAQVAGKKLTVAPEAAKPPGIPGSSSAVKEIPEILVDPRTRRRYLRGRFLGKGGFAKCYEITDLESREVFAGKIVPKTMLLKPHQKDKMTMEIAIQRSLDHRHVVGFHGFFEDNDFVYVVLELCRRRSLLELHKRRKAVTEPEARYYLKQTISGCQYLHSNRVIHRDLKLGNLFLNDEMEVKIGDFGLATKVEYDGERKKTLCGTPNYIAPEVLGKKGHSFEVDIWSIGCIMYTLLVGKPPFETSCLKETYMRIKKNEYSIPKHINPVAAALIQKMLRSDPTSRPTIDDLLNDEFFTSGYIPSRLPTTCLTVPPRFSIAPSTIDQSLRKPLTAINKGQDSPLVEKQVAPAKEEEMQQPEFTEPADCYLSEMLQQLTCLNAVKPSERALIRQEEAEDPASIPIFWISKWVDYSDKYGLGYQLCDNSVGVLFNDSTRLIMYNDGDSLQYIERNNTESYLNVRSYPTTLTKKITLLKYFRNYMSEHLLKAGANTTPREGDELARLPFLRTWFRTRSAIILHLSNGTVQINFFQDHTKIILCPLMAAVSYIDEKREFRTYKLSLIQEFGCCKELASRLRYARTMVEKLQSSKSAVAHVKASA

PLK3 = PLK3 (Homo sapiens, UniProt Q9H4B4); settings: cited from earlier work
Chain of PLK3 (Q9H4B4 whole entry, species assumed): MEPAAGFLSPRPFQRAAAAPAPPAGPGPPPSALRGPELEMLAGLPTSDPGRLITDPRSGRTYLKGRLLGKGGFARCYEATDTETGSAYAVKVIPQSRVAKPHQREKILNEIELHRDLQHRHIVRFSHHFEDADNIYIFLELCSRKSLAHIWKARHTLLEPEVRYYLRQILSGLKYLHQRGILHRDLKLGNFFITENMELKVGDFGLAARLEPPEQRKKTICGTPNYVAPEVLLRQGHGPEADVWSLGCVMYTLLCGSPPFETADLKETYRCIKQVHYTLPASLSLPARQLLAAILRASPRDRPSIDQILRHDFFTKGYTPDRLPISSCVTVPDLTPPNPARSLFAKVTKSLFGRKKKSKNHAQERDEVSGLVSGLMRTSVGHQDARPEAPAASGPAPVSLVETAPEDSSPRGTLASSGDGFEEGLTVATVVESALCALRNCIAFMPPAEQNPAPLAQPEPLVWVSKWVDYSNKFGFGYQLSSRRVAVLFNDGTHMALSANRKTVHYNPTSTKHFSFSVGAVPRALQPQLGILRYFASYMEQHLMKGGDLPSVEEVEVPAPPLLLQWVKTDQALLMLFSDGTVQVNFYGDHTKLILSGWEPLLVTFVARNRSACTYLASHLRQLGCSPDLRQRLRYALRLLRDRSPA

relapsed DLBCL patients = settings: cited from earlier work

In the case of `C=CC(=O)N1CCC[C@@H](n2nc(-c3ccc(Oc4ccccc4)cc3)c3c(N)ncnc32)C1` (racemic) [PCI-32765], the “inhibition of Bmx, CSK, FGR, BRK, and HCK” value [1] is given as “moderate inhibition” and the “activity on EGFR, Yes, ErbB2, and JAK3” value [2] is given as “lower activity”.

For `C=CC(=O)Nc1cc(-n2c(=O)ccc3cnc4ccc(-c5ccc(NS(C)(=O)=O)cc5)cc4c32)ccc1C` [BMX-IN-1], the IC50 [3] is listed as 0.008 µM.

For `Cc1c(NC(=O)c2cc3c(s2)CCCC3)cccc1-c1cn(C)c(=O)c(Nc2ccc([C@@H]3C(=O)N(C)CCN3C)cc2)n1` [GDC-0834], the IC50 (BTK [4]) is given as 5.6 µM.

For `Cn1cc(C2=C(c3cn(C4CCN(Cc5ccccn5)CC4)c4ccccc34)C(=O)NC2=O)c2ccccc21` [enzastaurin], the IC50 [5] was 6.7 to 16 µM, the p-BTK level [6] was “significant upregulation” and the “apoptosis as measured by annexin V staining” value (“apoptosis as measured” below) (HBL-1 cells [7]; enzastaurin alone (concentration in FIG. 3a)) was 25.5±5.4%. The “cleavage of PARP and caspase-3” value [8] was “increase the cleavage of PARP and caspase-3 slightly”, the invasive abilities (HBL-1 cells [9]) was 97.0 % of control and the migration abilities (HBL-1 cells [10]) was 79.0 % of control. The “phosphorylation of glycogen synthase kinase 3β (GSK3β)” value ([11]; low doses, 60 min and 120 min) was “clearly reduced”, the “p-BTK, p-ERK and p-AKT expression” value ([11]; short-term and low-dose treatment) was “increasing” and the “downregulated genes contained in the combination treatment group” value (HBL-1 cells [12]) was 365 genes. For the same compound, the “share of downregulated transcripts contained in the combination treatment group” value (HBL-1 cells [12]) was “Approximately 91%”, the transcripts significantly down (HBL-1 cells [12]; 2 micromolar enzastaurin and/or 0.02 micromolar ibrutinib, p<0.05) was 339 transcripts and the tumour weight [13] was 1151.62 ± 163.79 mg. For the same compound, the “reduction of tumor volume” value [13] was “weak activity”, the IC50 (SU-DHL-5) was 3.6 µM and the IC50 (SU-DHL-6) was 5.9 µM. For the same compound, the “patients experiencing FFP 20˜50 months” value (DLBCL patients [14]; 4/55 patients) was 7%, the “patients with prolonged freedom from progression (FFP≥4 cycles)” value (DLBCL patients [14]; 8/55 patients) was 15% and the “disease-free survival (DFS)” value (high-risk DLBCL patients) was “did not significantly improve”. The “survival of DGM1-positive over DGM1-negative patients” value (DLBCL patients [15]) was “significantly improved survival”.

In the case of `NC(=O)[C@H]1CCN(c2ncnc(N)c2F)C[C@@H]1N1CCC[C@@H](Nc2cc(Cl)cc(C(F)(F)F)c2)C1=O` [SNS-062], the Kd (BTK [16]) is given as 0.0003 µM and the Kd [17] is given as 0.0022 µM.

In the case of `C/C(O)=C(\C#N)C(=O)Nc1cc(Br)ccc1Br` [LFM-A13], the IC50 (Plx1) is given as 10 µM and the IC50 (PLK3) is given as 61 µM.

In the case of `C=CC(=O)N1CCC[C@@H](n2nc(-c3ccc(Oc4ccccc4)cc3)c3c(N)ncnc32)C1` [ibrutinib], the “apoptosis as measured” value (HBL-1 cells [7]; first-listed of two ibrutinib doses (FIG. 3a)) is reported as 15.9±6.0%, the “apoptosis as measured” value (HBL-1 cells [7]; second-listed of two ibrutinib doses (FIG. 3a)) is reported as 19.0±6.7% and the invasive abilities (HBL-1 cells [9]) is reported as 85.0 % of control. For the same compound, the migration abilities (HBL-1 cells [10]) was 70.2 % of control, the “phosphorylation of BTK and AKT” value [11] was “reduced” and the “phosphorylation of mTOR, PLCγ2, ERK and P38” value ([11]; combination compared to each monotherapy alone) was “mild effect”. For the same compound, the tumour weight [13] was 1141.80 ± 235.57 mg, the “reduction of tumor volume” value [13] was “weak activity” and the “overall response rate (ORR)” value (relapsed DLBCL patients; patients with ABC-DLBCL (14/38)) was 37%. The “overall response rate (ORR)” value (relapsed DLBCL patients; patients with GCB-DLBCL (1/20)) was 5%.

From US20220193062A1 (DENOVO BIOPHARMA LLC, priority 2018, published 2022)
